1 molecule from patent US7258738B2, “Cementing compositions including salts” (Halliburton Energy Services, Inc., priority 2005, dated 2007) can be followed below.

One series deals with scopthalmus. Kind of series: Fish toxicity, Part B of the OSPAR Protocols. Type of series: in vivo. The note with it: amount required to kill or incapacitate half the test population. An excerpt: (§1) According to still other embodiments described herein, a disulfonate salt of 2,4-pentanedione is provided. According to one such embodiment, the salt comprises 2,4-pentanedione-1,5-sodium disulfonate. According to another such embodiment, a disulfonate salt of 2,4-pentanedione has an environmentally acceptable toxicity. As used herein, the term “environmentally acceptable toxicity” means that, when tested according to procedures that are the same as or equivalent to those set forth by the OSPAR Guidelines for Completing the Harmonised Offshore Chemical Notification Format (HOCNF) (References number: 2003-1) that were in effect on Dec. 31, 2004, the salt is determined to have a toxicity of greater than about 10,000 mg/L for an algae (skeletonema costatum), a crustacean (acartia tonsa), a fish (scopthalmus) and a sediment reworker (corophium volutator). […]
(§2) In this Example 3, the toxicity results for the skeletonema costatum were determined according to ISO (International Organization for Standardization) 10253, the protocol for which is known to those of ordinary skill in the art, and is also the protocol required under the above-referenced HOCNF Guidelines. The toxicity results for the acartia tonsa were determined according to ISO 14669, the protocol for which is known to those of ordinary skill in the art. […]

Another series concerns skeletonema costatum. Kind of series: Algae toxicity, ISO 10253 (HOCNF). Format: in vivo. The conditions noted are these: amount required to kill or incapacitate half the test population.
Source text: as §1, §2

For another series, the system named is acartia tonsa. In words: Crustacean toxicity, ISO 14669. Format: in vivo. The note with it: amount required to kill or incapacitate half the test population.
Source text: as §1, §2

For another series, the system named is corophium volutator. In words: Sediment reworker toxicity, Part B of the OSPAR Protocols. Format: in vivo. The note with it: amount required to kill or incapacitate half the test population.
Source text: as §1, §2

A short description of series [1]: Solubility of salt compared to free acid (methanol rinse). Format: physicochemical. From the text:
The neutralized product was then rinsed several times with methanol to remove by-product acids, or any salts formed therefrom, while leaving the 2,4-pentanedione-1,5-sodium disulfonate primarily undissolved. […] The rinsed product was dried in a vacuum oven and filtered through a 300 mesh screen to afford a flowing pale orange/red powder. The resulting powder was 2,4-pentanedione-1,5-sodium disulfonate.

`O=C(CC(=O)CS(=O)(=O)[O-])CS(=O)(=O)[O-].[Na+].[Na+]` [2,4-pentanedione-1,5-sodium disulfonate]: the toxicity entry in the series with scopthalmus, in the series with skeletonema costatum, in the series with acartia tonsa and with corophium volutator was “greater than 10,000 mg/L” in each case. Also, the “solubility compared to the 2,4-pentanedione-1,5-disulfonic free acid” value in series [1] is reported as “significantly less soluble”.
